B1: PEGPH20: PEGylated Recombinant Human Hyaluronidase, clinical-grade recombinant hyaluronidase (provided by Halozyme Therapeutics) (protein, UniProt P38567 36-490, looked up)
Hyaluronidase PH-20: LNFRAPPVIPNVPFLWAWNAPSEFCLGKFDEPLDMSLFSFIGSPRINATGQGVTIFYVDRLGYYPYIDSITGVTVNGGIPQKISLQDHLDKAKKDITFYMPVDNLGMAVIDWEEWRPTWARNWKPKDVYKNRSIELVQQQNVQLSLTEATEKAKQEFEKAGKDFLVETIKLGKLLRPNHLWGYYLFPDCYNHHYKKPGYNGSCFNVEIKRNDDLSWLWNESTALYPSIYLNTQQSPVAATLYVRNRVREAIRVSKIPDAKSPLPVFAYTRIVFTDQVLKFLSQDELVYTFGETVALGASGIVIWGTLSIMRSMKSCLLLDNYMETILNPYIINVTLAAKMCSQVLCQEQGVCIRKNWNSSDYLHLNPDNFAIQLEKGGKFTVRGKPTLEDLEQFSEKFYCSCYSTLSCKEKADVKDTDAVDVCIADGVCIDAFLKPPMETEEPQIFYNASPSTLS
modifications: PEGylated

Assays:
[1] = tested on: WPMY-1 cells; experiment: ATAC-seq chromatin accessibility in WPMY-1 cells; type: cell-based, human; settings: lactate-treated WPMY-1 cells, 48 h
Description: The cell pellet was resuspended in 50 μl lysis buffer and then spun down 500×g for 10 minutes at 4° C. The nuclei pellet was resuspended into 50 μl transposition reaction mixture containing Tn5 transposase from Nextera DNA Library Prep Kit (Illumina) and incubated at 37° C. for 30 minutes. Then the transposase-associated DNA was purified using MinElute PCR purification kit (QIAGEN). To amplify the library, the DNA was first amplified for 5 cycles using indexing primer from Nextera kit and NEBNext High-Fidelity 2×PCR master mix. To reduce the PCR amplification bias, 5 μl of amplified DNA after the first 5 cycles was used to do qPCR of 20 cycles to decide the number of cycles for the second round of PCR. Usually, the maximum cycle of the second round of PCR is 5 cycles. Then the total amplified DNA was size selected to fragments less than 800 bp using SPRI beads. Quantification of the ATAC-seq library was done with QuBit. The size of the pooled library was examined by TapeStation. Barcoded ATAC-seq libraries were pooled and paired end sequenced (sX75) on the Illumina NextSeq 500 using the High output V2.5 kit (Illumina Inc., San Diego, CA).
Peaks were annotated with ChipSeeker R package. […].

[2] = tested on: AP-1; experiment: AP-1-driven luciferase reporter in WPMY-1 cells; type: cell-based, human; settings: lactate 48 h
[3] = tested on: WPMY-1 cells; experiment: Intracellular NAD levels in WPMY-1 cells; type: cell-based, human; settings: stromal fibroblasts treated with lactate vs untreated
Description: Quantification was carried out using the NAD/NADH quantification colorimetric kit (Cat. No. MAK037, Sigma) according to the manufacturer's protocol. At least three independent measurements were carried out.

[4] = tested on: PARP-1; experiment: Poly(ADP-ribosyl)ation in WPMY-1 cells (immunoblot, immunoprecipitation); type: cell-based, human
Description: Cells for protein analysis were lysed in RIPA buffer (20 mM Tris-HCl, […], 2 mM EDTA, 1% Triton-X, 10% glycerol, 0.1% SDS, and 0.5% sodium deoxycholate) with phosphatase and protease inhibitors. For immunoprecipitations, cells were lysed in IP lysis buffer (100 mM NaCl, 25 mM Tris, 1% Triton-X, 10% glycerol, with phosphatase and protease inhibitors) and immunoprecipitated with 25 μl of 50% slurry of protein […] beads (Bioworld). Immunoprecipitates were washed three times with lysis buffer, once with high salt (500 mM NaCl), and once more with lysis buffer. Protein concentration in lysates was determined by using Protein Assay Kit (Bio-Rad). Cell extracts and immunoprecipitated proteins were denatured, subjected to SDS-PAGE, transferred to PVDF membranes (GE Healthcare). After blocking with 5% nonfat dry milk in Tris-buffered saline and 0.1% Tween (TBS-T), the membranes were incubated with the specific antibodies (as listed in Key Resources Table) overnight at 4° C. After 2 hours incubation with the appropriate horseradish peroxidase-conjugated antibodies, the immune complexes were detected by chemiluminescence (Thermo Scientific) or Near-infrared fluorescence (LI-COR).

[5] = tested on: PC3 cells; experiment: Trans-well migration and invasion of PC3 cells co-cultured with pre-treated WPMY-1 cells; type: cell-based, human; settings: Olaparib 10 μM + PEGPH20 2.5 μg/ml, basal and ADT
Description: For co-culture migration and invasion assays, 8×10^4 WPMY-1 cells were plated onto the lower chamber of a 24 well plate in DMEN containing 10% FBS (basal conditions) or 10% charcoal stripped FBS (ADT conditions) and vehicle (DMSO) or Olaparib 10 μM or Olaparib 10 μM+PEGPH20 2.5 μg/ml for 48 hours. 5×10^4 PC3 were seeded in a transwell chamber (Corning Biocoat control inserts) or in a transwell invasion chamber (Corning BioCoat Matrigel Invasion Chambers), both with 8 μm membrane. PC3 were allowed to migrate or invade for 20 hours at 37° C., 5% CO2. Cells were fixed in cold methanol and stained with crystal violet.

[6] = tested on: PC3 cells; experiment: Click-iT EdU proliferation of PC3 cells treated with CM from WPMY-1 cells; type: cell-based, human; settings: Olaparib 10 μM + PEGPH20 2.5 μg/ml or CM incubation with Galunisertib 10 μM
Description: WPMY-1 cells were cultured in DMEN containing 10% FBS (basal conditions) or 10% charcoal stripped FBS (ADT conditions), then the cells were treated with vehicle (DMSO), Olaparib 10 μM, Olaparib 10 μM+PEGPH20 2.5 μg/ml for 96 hours, refreshing media and stimuli at 48 hours, conditioned media (CM) was generated by collecting supernatant on day 4. PC3 cells were seeded in a black-walled well (Thermo Fisher) and serum starved overnight. CM from WPMY-1 cells was added to PC3 for 24 h. PC3 were exposed to EdU incorporation for the last 2 hours. Proliferating cells were detected using Click-iT EdU Alexa fluor 488 (Thermo Fisher) following the manufacturer's instructions. Pictures were taken using EVOS M5000 Imaging System and EdU positive were measured using Fiji (Schindelin et al., 2012).

[7] = tested on: PC3 + WPMY-1 tumors; experiment: Subcutaneous xenograft co-implantation of PC3 and WPMY-1 cells in NSG mice; type: in vivo, mouse; settings: Olaparib 40 mg/Kg + PEGPH20 0.0375 mg/Kg, twice a week, 2 weeks
Description: For mouse xenografts using PC3 PCa cells and sgC or sgAP-1 WPMY-1 stromal cells. 7 weeks old NSG mice were surgical castrated and let androgen levels drop for 10 days. Cells were trypsinized washed two times in PBS and resuspend in DMEN. 1×10^6 PC3 and 1×10^6 sgC or sgAP1-A WPMY-1 for each mouse were resuspended in 100 μl DMEM: Matrigel (1:1) and injected subcutaneously into both flanks of immunocompromised NSG mice (PC3+sgC WPMY-1 n=4; PC3+sgAP-1 WPMY-1 n=4). Tumors were allowed to grow for 1 month. Mice were euthanized and tumors were collected and analyzed histologically. For Olaparib treatment in mouse xenografts. PC3 PCa cells and WPMY-1 stromal cells were trypsinized washed two times in PBS and resuspend in DMEN. 1×10^6 PC3 and 1×10^6 WPMY-1 for each mouse were resuspended in 100 μl DMEM: Matrigel (1:1) and injected subcutaneously into both flanks of immunocompromised NSG mice. Tumors were allowed to grow for 14 days, and mouse were randomly divided to receive vehicle, n=10, Olaparib (40 mg/kg, 2 days each week, i.p.), n=10 or Olaparib (40 mg/kg, 2 days each week, i.p.)+_PEGPH20 (0.0375 mg/Kg, 2 days each week, retroorbital injection) n=10. Tumors were measured twice a week. Mice were euthanized 14 days after the initiation of the treatment and tumors were collected and analyzed histologically. For Olaparib treatment in mice, 13 weeks-old male TRAMP^+, n=18, were randomly distributed to receive vehicle, n=9, or Olaparib (40 mg/kg/, 5 days each week, i.p.), n=9. Mice were euthanized 1 month after the initiation of the treatment. Prostate and other organs were collected and analyzed histologically.
Tissues from indicated mice were isolated, fixed in zinc buffered formalin overnight at 4° C., dehydrated, and embedded in paraffin. Sections (5 μm) were stained with hematoxylin and eosin (H&E). For immunohistochemistry, sections were deparaffinized, rehydrated, and then treated for antigen retrieval. […] Stained sections were analyzed with a Zeiss light microscope supplemented with Zen 3.3 Bule edition software.

[8] = tested on: hyaluronan (HA) in WPMY-1 cells; experiment: Immunofluorescence for HABP (HA deposition) in WPMY-1 cells; type: cell-based, human; settings: Olaparib 10 μM + PEGPH20 2.5 μg/ml, 96 h, basal and ADT
Description: WPMY-1 cells were seeded in coverslides and cultured in DMEN containing 10% FBS (basal conditions) or 10% charcoal stripped FBS (ADT conditions), then the cells were treated with vehicle (DMSO), Olaparib 10 μM, Olaparib 10 μM+PEGPH20 2.5 μg/ml for 96 hours, refreshing media and stimuli at 48 hours. Cells were fixed in PFA 4% for 20 minutes at room temperature, permeabilize and blocked following abcam's immunofluorescence protocol. Then, cells were incubated overnight with Hyaluronic acid binding protein (HABP) at 4° C. Cells were incubated with Alexa conjugated streptavidin and mounted in slides with mowiol. Pictures were taken by Zeiss LSM 710 NLO Confocal Microscope.

[9] = tested on: metastatic pancreas cancer; settings: cited from earlier work

Row | Molecule | chromatin accessibility [1] | AP-1-driven luciferase reporter activity [2] | NAD+ levels [3] | poly(ADP-ribosyl)ation of c-JUN and c-FOS ([4]; lactate 48 h, immunoprecipitation) | total poly(ADP-ribosyl)ation levels ([4]; lactate-treated WPMY-1 cells) | Olaparib-enhanced migration of PC3 cells [5] | Olaparib-induced proliferation (EdU) [6] | anti-tumor activity of the combination (tumor volume) [7] | HA deposition in response to Olaparib [8] | primary endpoint of phase 3 trial [9]
1 | CC(O)C(=O)O (stereo not shown) [lactate] | widespread decrease in chromatin accessibility | repressed an AP-1-driven luciferase reporter | lower than in untreated cells | impaired the poly(ADP-ribosyl) ation of c-JUN and c-FOS | reduced total poly(ADP-ribosyl) ation levels |  |  |  |  | 
2 | B1 |  |  |  |  |  | completely blocked the enhanced migration of PC3 cells | blocked Olaparib-induced proliferation in stromal cells | enhanced Olaparib anti-tumor activity | efficiently degraded HA deposition | failed to meet the primary endpoint
